Measurements published in publication PMC12516397 (ACS Medicinal Chemistry Letters, 2025).
No end group written: not given here.

Assays:
Vero E6 cells = conditions: 72 h
[1] = pH 5
[2] = molecular target: SARS-CoV-2 main protease (Mpro) (Severe acute respiratory syndrome coronavirus 2, UniProt P0DTD1); test: biochemical

| Substance | CC50, cellular viability (Vero E6 cells) | Solubility [1] | IC50 [2] |
| --- | --- | --- | --- |
| SAFWQWFSKFLGR-NH2 [TLP-3] | 14.91 µM | limited peptide solubility | 7 ± 1.5 µM |
| SAYWQWFSKFLGRIL-NH2 [TLP-2] | 2.56 µM | limited peptide solubility | 11.5 ± 1 µM |
| FLQWFSKFLGRIL-NH2 [TLP-1] | 4.65 µM | limited peptide solubility | 11.4 ± 1.5 µM |
| FVQWFSKFLGRIL-NH2 [Temporin L, reference compound] | 6.78 µM |  | 39 ± 4.5 µM |
